Experiments:
[1] = Stability in rat hepatocytes assessed as maximum bioavailability; assay type: ADME, Hepatocyte; details: read-out: Fmax
[2] = Stability in human liver microsomes assessed as maximum bioavailability; assay type: ADME, Microsome; details: read-out: Fmax
[3] = Clearance in rat hepatocytes; assay type: ADME, cell-based, Hepatocyte
[4] = biological target: T1, Solute carrier family 2, facilitated glucose transporter member 1 (Homo sapiens, UniProt P11166); experiment: (§1) Inhibition of human GLUT1 expressed in human DLD-1 cells assessed as reduction in glucose uptake by measuring decrease in ATP production incubated for 15 mins in presence of oxidative phosphorylation inhibitor rotenone by CellTiter-Glo Luminescent Cell Viability Assay; assay type: cell-based
T1 sequence (P11166 whole entry): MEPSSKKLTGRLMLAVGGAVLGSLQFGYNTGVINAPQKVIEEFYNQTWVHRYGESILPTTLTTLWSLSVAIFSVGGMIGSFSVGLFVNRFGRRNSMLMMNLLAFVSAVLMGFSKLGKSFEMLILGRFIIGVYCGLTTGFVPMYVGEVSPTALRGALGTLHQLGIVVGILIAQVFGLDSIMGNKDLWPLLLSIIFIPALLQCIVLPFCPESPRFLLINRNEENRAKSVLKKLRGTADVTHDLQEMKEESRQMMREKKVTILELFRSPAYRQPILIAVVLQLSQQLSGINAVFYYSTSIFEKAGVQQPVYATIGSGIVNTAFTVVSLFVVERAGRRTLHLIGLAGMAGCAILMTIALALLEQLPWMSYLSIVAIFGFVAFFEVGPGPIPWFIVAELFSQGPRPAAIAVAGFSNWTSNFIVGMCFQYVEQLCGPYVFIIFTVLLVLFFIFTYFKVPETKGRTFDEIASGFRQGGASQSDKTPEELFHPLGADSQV

[5] = Clearance in human liver microsomes; assay type: ADME, Microsome
[6] = biological target: T2, Solute carrier family 2, facilitated glucose transporter member 3 (Homo sapiens, UniProt P11169); experiment: Inhibition of human GLUT3 expressed in human GLUT1-/- DLD-1 cells assessed as reduction in glucose uptake by measuring decrease in ATP production incubated for 15 mins in presence of oxidative phosphorylation inhibitor rotenone by CellTiter-Glo Luminescent Cell Viability Assay; assay type: cell-based
T2 sequence (P11169 whole entry): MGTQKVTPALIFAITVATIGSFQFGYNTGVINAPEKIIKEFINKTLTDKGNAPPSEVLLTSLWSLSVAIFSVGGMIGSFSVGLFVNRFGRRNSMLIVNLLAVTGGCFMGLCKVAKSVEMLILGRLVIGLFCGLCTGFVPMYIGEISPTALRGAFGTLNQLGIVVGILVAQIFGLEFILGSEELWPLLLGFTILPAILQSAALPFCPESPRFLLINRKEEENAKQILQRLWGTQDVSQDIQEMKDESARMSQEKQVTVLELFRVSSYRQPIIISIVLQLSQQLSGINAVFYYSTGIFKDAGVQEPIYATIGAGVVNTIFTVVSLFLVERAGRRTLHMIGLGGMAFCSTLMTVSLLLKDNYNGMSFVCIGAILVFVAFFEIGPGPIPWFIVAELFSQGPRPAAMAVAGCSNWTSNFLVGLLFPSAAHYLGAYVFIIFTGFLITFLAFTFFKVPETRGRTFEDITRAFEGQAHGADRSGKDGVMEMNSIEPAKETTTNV

[7] = biological target: T3, Solute carrier family 2, facilitated glucose transporter member 4 (Homo sapiens, UniProt P14672); experiment: as §1, with “GLUT4” for “GLUT1”, “CHO” for “human DLD-1”, “preincubated” for “incubated”, “for 20 mins followed by glucose addition and measured after” for “for”; assay type: cell-based
T3 sequence (P14672 whole entry): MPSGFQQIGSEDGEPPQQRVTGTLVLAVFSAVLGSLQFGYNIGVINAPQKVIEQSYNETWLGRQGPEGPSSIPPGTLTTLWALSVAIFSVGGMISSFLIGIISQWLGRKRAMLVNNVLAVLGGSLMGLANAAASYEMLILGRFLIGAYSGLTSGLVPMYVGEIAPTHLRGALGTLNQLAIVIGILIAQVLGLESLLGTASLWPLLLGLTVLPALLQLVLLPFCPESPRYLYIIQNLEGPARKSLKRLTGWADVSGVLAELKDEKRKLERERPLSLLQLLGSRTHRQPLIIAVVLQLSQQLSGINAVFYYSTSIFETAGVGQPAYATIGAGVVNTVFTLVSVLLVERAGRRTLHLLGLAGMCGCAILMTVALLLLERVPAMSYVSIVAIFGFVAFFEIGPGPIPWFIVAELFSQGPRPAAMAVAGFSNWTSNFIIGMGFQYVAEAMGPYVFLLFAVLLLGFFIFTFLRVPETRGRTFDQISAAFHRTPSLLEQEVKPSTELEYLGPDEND

[8] = Clearance in mouse liver microsomes; assay type: ADME, Microsome
[9] = Stability in mouse liver microsomes assessed as maximum bioavailability; assay type: ADME, Microsome; details: read-out: Fmax
[10] = biological target: T4, Solute carrier family 2, facilitated glucose transporter member 2 (Homo sapiens, UniProt P11168); experiment: Inhibition of human GLUT2 expressed in CHO cells assessed as reduction in fructose uptake by measuring decrease in ATP production incubated for 15 mins in presence of oxidative phosphorylation inhibitor rotenone by CellTiter-Glo Luminescent Cell Viability Assay; assay type: cell-based
T4 sequence (P11168 whole entry): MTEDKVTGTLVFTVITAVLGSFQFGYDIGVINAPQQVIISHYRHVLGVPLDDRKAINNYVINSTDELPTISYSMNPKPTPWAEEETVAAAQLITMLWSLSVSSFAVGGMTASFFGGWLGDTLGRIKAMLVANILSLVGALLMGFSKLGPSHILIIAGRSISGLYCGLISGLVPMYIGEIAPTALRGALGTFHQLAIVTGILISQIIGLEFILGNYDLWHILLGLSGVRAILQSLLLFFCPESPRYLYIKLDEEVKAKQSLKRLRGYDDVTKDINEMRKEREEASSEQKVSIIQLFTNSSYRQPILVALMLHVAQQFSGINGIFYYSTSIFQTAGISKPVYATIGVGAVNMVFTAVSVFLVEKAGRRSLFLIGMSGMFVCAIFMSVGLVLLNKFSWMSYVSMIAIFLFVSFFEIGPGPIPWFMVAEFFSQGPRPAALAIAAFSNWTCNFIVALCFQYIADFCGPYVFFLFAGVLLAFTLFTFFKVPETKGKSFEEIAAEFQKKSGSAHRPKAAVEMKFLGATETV

Cc1c(NC(=O)c2cc(C(N)=O)nc3cc(F)ccc23)c(C(F)(F)F)nn1Cc1ncc(C#N)cn1
Fh [1]: 79% | Fh [2]: 83% | CLhep predicted [3]: 14.8 mL/min/kg | IC50 [4]: 0.026 µM | CLhep predicted [5]: 3.67 mL/min/kg

Cc1c(NC(=O)c2cc(C(=O)N3CC(O)C3)nc3cc(F)ccc23)c(C(F)(F)F)nn1Cc1ccc(C#N)cc1
IC50 [4]: 0.34 µM

Cc1c(NC(=O)c2cc(-c3ccc(F)cc3)nc3ccccc23)c(C(F)(F)F)nn1Cc1ccc(C#N)cc1
IC50 [4]: 0.92 µM

Cc1c(NC(=O)c2cc(C(N)=O)nc3cc(F)cc(F)c23)c(C(F)(F)F)nn1Cc1ccc(C#N)cc1
IC50 [4]: 0.001 µM | IC50 [6]: 0.47 µM | IC50 [7]: 0.016 µM

Cc1c(NC(=O)c2cc(C(N)=O)nc3cccc(F)c23)c(C(F)(F)F)nn1Cc1ccc(C#N)cc1
IC50 [4]: 0.003 µM | IC50 [6]: 0.23 µM | IC50 [7]: 0.094 µM

Cc1nc(C)c(-c2cc(C(=O)Nc3c(C(F)(F)F)nn(Cc4ccc(C#N)cc4)c3C)c3ccccc3n2)s1
IC50 [4]: 0.76 µM | IC50 [7]: 0.91 µM

Cc1c(NC(=O)c2cc(C(N)=O)nc3ncccc23)c(C(F)(F)F)nn1Cc1ccc(C#N)cc1
IC50 [4]: 0.045 µM | IC50 [6]: 0.3 µM | IC50 [7]: 1 µM

CCc1ccc(Cn2nc(C(F)(F)F)c(NC(=O)c3cc(C(N)=O)nc4cc(F)ccc34)c2C)cc1
CLhep predicted [3]: 48.3 mL/min/kg | CLhep predicted [5]: 16.5 mL/min/kg

Cc1nn(Cc2ccc(C#N)cc2)c(C)c1NC(=O)c1cc(C(N)=O)nc2cc(F)ccc12
CLhep predicted [3]: 16.7 mL/min/kg | CLhep predicted [8]: 11.2 mL/min/kg | CLhep predicted [5]: 7.5 mL/min/kg

Cc1c(NC(=O)c2cc(C(N)=O)nc3ccc(F)cc23)c(C(F)(F)F)nn1Cc1ccc(C#N)cc1
IC50 [4]: 0.005 µM | IC50 [6]: 0.29 µM | IC50 [7]: 0.044 µM

Cc1c(NC(=O)c2cc(C(N)=O)nc3cc(F)ccc23)c(C(F)(F)F)nn1Cc1ccc(C(F)(F)F)cc1
IC50 [4]: 0.009 µM | IC50 [7]: 0.91 µM

Cc1c(NC(=O)c2cc(C(N)=O)nc3cc(F)ccc23)c(C(F)(F)F)nn1Cc1cnc(C#N)cn1
Fh [1]: 72% | Fh [2]: 60% | CLhep predicted [3]: 20 mL/min/kg | IC50 [4]: 0.005 µM | CLhep predicted [5]: 8.83 mL/min/kg | IC50 [7]: 0.016 µM

Cc1c(NC(=O)c2ccnc(C(N)=O)c2)c(C(F)(F)F)nn1Cc1ccc(C#N)cc1
IC50 [4]: 0.2 µM

Cc1c(NC(=O)c2cc(C(N)=O)nc3scnc23)c(C(F)(F)F)nn1Cc1ccc(C#N)cc1
IC50 [4]: 0.035 µM | IC50 [7]: 0.28 µM

Cc1c(NC(=O)c2cc(-c3cccnc3)nc3ccccc23)c(C(F)(F)F)nn1Cc1ccc(C#N)cc1
IC50 [4]: 0.074 µM

Cc1nn(Cc2ccc(C#N)cc2)c(C)c1NC(=O)c1cc(C(F)(F)F)nc2ccc(Br)cc12
CLhep predicted [8]: 56.7 mL/min/kg

COc1ccc2nc(C(N)=O)cc(C(=O)Nc3c(C(F)(F)F)nn(Cc4ccc(C#N)cc4)c3C)c2c1
IC50 [6]: 0.11 µM | IC50 [7]: 0.013 µM

Cc1c(NC(=O)c2cc(C(N)=O)nc3cc(F)ccc23)c(C(F)(F)F)nn1Cc1ccccc1C#N
IC50 [4]: 0.003 µM | IC50 [7]: 0.088 µM

Cc1ccc2nc(C(N)=O)cc(C(=O)Nc3c(C(F)(F)F)nn(Cc4ccc(C#N)cc4)c3C)c2c1
Fh [1]: 53% | CLhep predicted [3]: 33.3 mL/min/kg | CLhep predicted [8]: 38.3 mL/min/kg | Fh [9]: 57% | IC50 [7]: 0.12 µM

Cc1nn(Cc2ccc(F)cc2)c(C)c1N
IC50 [4]: 0.96 µM

Cc1nn(-c2ccc(F)cc2)c(C)c1NC(=O)c1cc(C(F)(F)F)nc2ccc(Br)cc12
IC50 [4]: 0.47 µM

Cc1ccccc1Cn1nc(C(F)(F)F)c(NC(=O)c2cc(C(N)=O)nc3cc(F)ccc23)c1C
IC50 [4]: 0.007 µM

Cc1nn(Cc2ccc(C#N)cn2)c(C)c1NC(=O)c1cc(C(F)(F)F)nc2ccc(Br)cc12
IC50 [4]: 0.002 µM

Cc1c(NC(=O)c2cc(C(=O)NCCN3CCOCC3)nc3cc(F)ccc23)c(C(F)(F)F)nn1Cc1ccc(C#N)cc1
IC50 [4]: 0.34 µM

Cc1cccc(Cn2nc(C(F)(F)F)c(NC(=O)c3cc(C(N)=O)nc4cc(F)ccc34)c2C)c1
IC50 [4]: 0.011 µM | IC50 [7]: 0.61 µM

Cc1c(NC(=O)c2cc(C(N)=O)nc3cc(F)ccc23)c(C(F)(F)F)nn1Cc1ccc(OC(F)(F)F)cc1
IC50 [4]: 0.005 µM | IC50 [7]: 0.37 µM

Cc1cc(C)c2nc(-c3ccco3)cc(C(=O)Nc3c(C)nn(Cc4ccc(F)cc4)c3C)c2c1
CLhep predicted [3]: 63.3 mL/min/kg

Cc1c(NC(=O)c2cc(C(N)=O)nc3cc(F)c(F)cc23)c(C(F)(F)F)nn1Cc1ccc(C#N)cc1
IC50 [4]: 0.002 µM | IC50 [7]: 0.18 µM

Cc1nn(Cc2ccc(C#N)cc2F)c(C)c1NC(=O)c1cc(C(F)(F)F)nc2ccc(Br)cc12
IC50 [4]: 0.008 µM | IC50 [7]: 0.87 µM

Cc1nn(CCc2ccc(F)cc2)c(C)c1NC(=O)c1cc(C(F)(F)F)nc2ccc(Br)cc12
IC50 [7]: 0.34 µM

Cc1nn(CC2CCOCC2)c(C)c1NC(=O)c1cc(C(F)(F)F)nc2ccc(Br)cc12
IC50 [10]: 8.5 µM

Cc1c(NC(=O)c2cc(C(N)=O)nc3cc(F)ccc23)c(C(F)(F)F)nn1Cc1cccc(C#N)c1
IC50 [7]: 0.95 µM

Cc1c(NC(=O)c2cc(-c3ncnn3C)nc3ccccc23)c(C(F)(F)F)nn1Cc1ccc(C#N)cc1
CLhep predicted [3]: 31.7 mL/min/kg | CLhep predicted [8]: 35 mL/min/kg

Cc1nn(Cc2ccc(F)cc2)c(C)c1NC(=O)c1cc(C(F)(F)F)nc2ccc(Br)cc12
CLhep predicted [3]: 48.3 mL/min/kg | CLhep predicted [8]: 75 mL/min/kg

Cc1c(NC(=O)c2cc(C(N)=O)nc3cnccc23)c(C(F)(F)F)nn1Cc1ccc(C#N)cc1
IC50 [4]: 0.01 µM | IC50 [7]: 0.061 µM

Cc1ccc2nc(C)cc(C(=O)Nc3c(C)nn(Cc4ccc(F)cc4)c3C)c2c1
Fh [2]: 11% | CLhep predicted [3]: 61.7 mL/min/kg | CLhep predicted [5]: 20 mL/min/kg | Fh [9]: 25%

Cc1cccc2nc(C(N)=O)cc(C(=O)Nc3c(C(F)(F)F)nn(Cc4ccc(C#N)cc4)c3C)c12
IC50 [4]: 0.018 µM | IC50 [6]: 0.086 µM | IC50 [7]: 0.017 µM

Cc1c(NC(=O)c2cc(C(N)=O)nc3cc(F)ccc23)c(C(C)C)nn1Cc1ccc(C#N)cc1
Fh [2]: 34% | IC50 [4]: 0.007 µM | CLhep predicted [5]: 14.5 mL/min/kg

Cc1c(NC(=O)c2cc(C(N)=O)nc3cc(F)ccc23)c(C(F)(F)F)nn1Cc1ccc(C(C)(C)C)cc1 [BAY-588]
IC50 [10]: > 10 µM | IC50 [7]: 0.5 µM

C=C1[C@@H](C)[C@H]2[C@H](Cc3ccccc3)NC(=O)[C@]23OC(=O)/C=C/[C@H](O)CCC[C@@H](C)C/C=C/[C@H]3[C@@H]1O [CYTOCHALASIN B]
IC50 [10]: 2.8 µM

Source: ChEMBL document CHEMBL5653626 (ChemMedChem, 2016)
